Results published in US20250319067A1, “Improved Pharmacokinetics of Tryptamine Prodrugs” (Reunion Neuroscience, Inc., priority 2023, published 2025).

How the values were obtained:
[1] = GLP 14-day extended single SC dose toxicity study in dogs; settings: beagle, dog, sc
[2] = Non-GLP single dose, dose range study in rats (MTD); settings: rat, in vivo, sc
Method: Non-GLP single dose, dose range studies with RE104 HCl were performed in rats and dogs to explore toxicity and establish a maximum tolerated dose (MTD) by SC injection. The rat study explored dosing with two formulations, water for injection (WFI) at pH 3-4 and phosphate buffered saline (PBS) with a final formulation pH of 4.5-5. Single doses of 20 to 300 mg/kg formulated in WFI produced dose-dependent pharmacologically related systemic serotonergic clinical signs. Similarly, SC administration with doses of 25 to 225 mg/kg RE104 formulated in PBS caused clinical signs of SS around 1 hour with recovery by 24 hours.
Clinical signs were reversible by Recovery Day 13 (Study Day 14). Microscopic injection site pathology was seen following a single dose of 225 mg/kg. The MTD in the rat for RE104 in WFI was 150 mg/kg and in PBS was 75 mg/kg.

monkey hepatocytes = assay: Hepatocyte intrinsic clearance, monkey; type: in vitro ADME
Source text: (§1) In human, rat, rabbit, dog and monkey hepatocytes, the metabolite profile of RE104 was qualitatively similar across these species with only minor differences.

healthy females = assay: Phase 1 FIH study: modified Drug Effect Questionnaire (DEQ-High); type: in vivo, human; parameters: mean time to peak DEQ-High score: dose or concentration left out as unconfirmed
Method: (§2) The study was a double-blind, randomized, placebo-controlled Phase 1 single ascending dose study in up to 6 cohorts in healthy females. Eligibility was assessed during a screening period of up to 28 days prior to enrollment. For the treatment period, subjects were admitted to the clinical research unit (CRU) one day prior to the dosing (Day −1). On Day 1, all subjects will received the assigned SC dose of RE104 HCl or placebo in a fed state (after domiciling overnight and consuming a planned evening meal on Day −1 and morning meal on Day 1 while at the CRU). Subjects were allowed to select snacks from a planned menu from 4 hours following dosing. Subjects were discharged from the clinic on Day 2 (−24 hours post-dose) after all required study procedures were completed and if deemed medically fit. Subjects returned to the clinic on Day 10 (±2 days) for a follow up visit.
The Drug Effect Questionnaire (DEQ) Feel/High is widely used in studies of acute subjective response to a variety of substances, to assess two key aspects of subjective experience: (1) the strength of substance effects and (2) desirability of substance effects (Morean et al., 2013). The modified DEQ assesses the extent to which subjects (1) feel any substance effect(s) and (2) feel high. This version of the DEQ includes the following items: “Do you feel a drug effect right now?” (FEEL); “Are you high right now?” (HIGH). FIG. 2 sets out the modified DEQ that was used.
The modified DEQ was used as an 11-point numeric rating scale (0-10) administered by a qualified staff member. The subjects were asked to verbally respond to indicate how strongly they feel the drug effect and how high they feel on the scale of 0-10 after being administered the study drug (Kollltveit et al., 2020).

in vivo = settings: male, beagle, dog, plasma
Method: Two consecutive doses were separated by z7 days. Plasma samples were analyzed using an LC-MS/MS method (lower limit of quantification of 1.00 ng/mL for both analytes).
Pharmacokinetic parameters were calculated using Phoenix WinNonlin, version 6.3 or 8.2 (Certara, Princeton, NJ, USA).
For dog PK assessments, approximately 0.5 mL of blood was collected via superficial vein before dose and at 5 (for IV and SC injections only), 15, and 30 minutes and 1, 2, 4, 8, 16, 24, 48, and 72 hours post dose into tubes containing K2EDTA with 10 mM Dichlorvos as the anticoagulant and stabilizer, respectively.

[3] = test system: cytochrome P450 (CYP) enzymes, FMO and MAO enzymes; assay: Recombinant human enzymes (Supersomes) substrate assay; type: in vitro ADME
[4] = molecular target: human recombinant 5-HT2A receptors (Homo sapiens, UniProt P28223); assay: 5-HT2A cellular agonist effect assay (IP1, HTRF); type: cell-based; parameters: host or cells: HEK-293
Sequence of human recombinant 5-HT2A receptors (P28223 whole entry): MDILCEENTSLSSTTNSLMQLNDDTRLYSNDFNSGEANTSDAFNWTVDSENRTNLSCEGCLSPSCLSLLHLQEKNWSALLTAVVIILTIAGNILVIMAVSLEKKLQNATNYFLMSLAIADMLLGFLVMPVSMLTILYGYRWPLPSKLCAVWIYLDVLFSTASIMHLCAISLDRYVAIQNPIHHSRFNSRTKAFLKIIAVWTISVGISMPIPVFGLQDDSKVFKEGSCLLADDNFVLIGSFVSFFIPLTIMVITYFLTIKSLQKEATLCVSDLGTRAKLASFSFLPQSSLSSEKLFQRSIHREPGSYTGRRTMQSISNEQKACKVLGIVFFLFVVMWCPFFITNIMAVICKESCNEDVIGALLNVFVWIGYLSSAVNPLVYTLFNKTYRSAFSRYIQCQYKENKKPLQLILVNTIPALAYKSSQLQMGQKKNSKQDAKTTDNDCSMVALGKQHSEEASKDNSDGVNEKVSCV
Method: Activation was calculated as a percentage of the response to the positive control (10 μM 5-HT).
EC50 and IC50 values were determined by nonlinear regression analysis of the concentration-response curves generated with mean replicate values using Hill equation curve fitting. For all receptor pharmacology assays, data were analyzed with software developed at Cerep (Hill software, Celle-Lévescault, France) and validated by comparison with data generated by the commercial software SigmaPlot® 4.0 for Windows®(01997 by SPSS Inc).

rat hepatocytes = assay: Hepatocyte intrinsic clearance, rat; type: in vitro ADME
Source text: as §1

[5] = Rat PK after single IV or SC RE104 HCl 2 mg/kg (Example 1); settings: plasma, sc, 2 mg/kg
[6] = Phase 1 FIH study: plasma pharmacokinetics (LC-MS/MS); type: in vivo; settings: human; for Cmax / Tmax / half-life: female, plasma; for half-life: read-out: t1/2, mean (converted)
Method: as §2
The concentrations of RE104 and isoprocin in plasma were determined using a validated Liquid chromatography tandem mass spectrometry (LC-MS/MS) assay.

male Wistar rats = assay: Forced swim test (FST) in rats; type: in vivo, rat
[7] = Prodrug cleavage in dog plasma; type: in vitro ADME; settings: after 4 hours of incubation
Method: Mean values from 3 replicate assays are reported. See the Supplemental Methods for additional details.
Triplicate aliquots (50 μL) of each spiked plasma solution were immediately added to 200 μL of ice-cold methanol/acetonitrile solution (50:50 v/v) containing the internal standards to generate time zero samples. Spiked plasma solutions were incubated at 37° C. in an orbital shaker set to 75 rpm, and 50-μL samples were taken in triplicate after 30 minutes and 1, 2, and 4 hours of incubation. Each sample was immediately added to 200 μL ofice-cold methanol/acetonitrile solution containing the internal standard(s) to terminate the reaction. Samples were mixed by vortex and then stored at −80° C. until analysis.
Calibration standards were prepared in plasma for each species and analyzed in batches by LC-MS/MS. Sample batches consisted of 3 replicates of a system suitability standard (containing the analyte and internal standard), the appropriate calibration standards in ascending order including a blank sample without internal standard, a zero sample (with internal standard), and at least 6 nonzero standards and the assay samples, followed by the 3 replicates of the system suitability sample.

CC(C)N(CCc1c[nH]c2cccc(OC(=O)CCCC(=O)O)c12)C(C)C [RE104]
AUC(0-t) ([1]; plasma, 8 mg/kg): 4540 ng·h/mL | Cmax ([1]; plasma, 8 mg/kg): 3300 ng/mL | NOAEL at 14 days ([1]; both, in vivo): 8 mg/kg | MTD at 14 days ([2]; formulated in PBS): 75 mg/kg | MTD at 14 days ([2]; formulated in WFI): 150 mg/kg | in vitro intrinsic clearance (CLint) (monkey hepatocytes): 1.14 mL/hr/106 cells | mean time to peak DEQ-High score (healthy females): 1.1 h | Mean Experience Duration (healthy females; 33 mg): 3.7 h | DEQ-High score, all participants (healthy females; 4 hours post dose): 51 | AUC(0-inf) (in vivo; po, 5 mg/kg): 21.8 ng·h/mL | AUC(0-t) (in vivo; po, 5 mg/kg): 20 ng·h/mL | Cmax (in vivo; po, 5 mg/kg): 12.2 ng/mL | Tmax (in vivo; po, 5 mg/kg): 30 min | bioavailability (in vivo; po, 5 mg/kg): 0.854% | half-life (in vivo; po, 5 mg/kg): 78 min | AUC(0-t) (in vivo; sc, 1 mg/kg): 658 ng·h/mL | substrate for cytochrome P450, FMO or MAO isoforms [3]: not a substrate | EC50 [4]: > 30 µM | in vitro intrinsic clearance (CLint) (rat hepatocytes): 6.66 mL/hr/106 cells | bioavailability [5]: ~100% | Cmax ([6]; RE104 dose 5.5 mg SC (n = 6)): 173 ng/mL | Tmax ([6]; RE104 dose 5.5 mg SC (n = 6)): 25.2 min | half-life ([6]; RE104 dose 5.5 mg SC (n = 6)): 31.8 min | Cmax ([6]; RE104 dose 11 mg SC (n = 6)): 527 ng/mL | Tmax ([6]; RE104 dose 11 mg SC (n = 6)): 19.8 min | half-life ([6]; RE104 dose 11 mg SC (n = 6)): 28.8 min | Cmax ([6]; RE104 dose 22 mg SC (n = 6)): 788 ng/mL | Tmax ([6]; RE104 dose 22 mg SC (n = 6)): 22.8 min | half-life ([6]; RE104 dose 22 mg SC (n = 6)): 30 min | Cmax ([6]; RE104 dose 33 mg SC (n = 9)): 1460 ng/mL | Tmax ([6]; RE104 dose 33 mg SC (n = 9)): 15 min | half-life ([6]; RE104 dose 33 mg SC (n = 9)): 25.8 min | Cmax ([6]; RE104 dose 38 mg SC (n = 6)): 1250 ng/mL | Tmax ([6]; RE104 dose 38 mg SC (n = 6)): 22.8 min | half-life ([6]; RE104 dose 38 mg SC (n = 6)): 38.4 min | Cmax ([6]; RE104 dose 44 mg SC (n = 3)): 1800 ng/mL | Tmax ([6]; RE104 dose 44 mg SC (n = 3)): 25.2 min | half-life ([6]; RE104 dose 44 mg SC (n = 3)): 31.2 min | time after administration by which not detectable in plasma ([6]; any dose): ≤ 5 h | climbing as share of escape behaviors (male Wistar rats; rat FST, day 28): 45% | swimming as share of escape behaviors (male Wistar rats; rat FST, day 28): 55% | mean swimming time relative to vehicle (male Wistar rats; rat FST, single 1 mg/kg dose): significantly increased | mean immobility time vs vehicle (male Wistar rats; rat FST, single 1 mg/kg dose, day 7, 14, and 28): significant decrease | duration of distinctive serotonergic behaviors (male Wistar rats; rat, dosing day, 1 mg/kg): approximately 3 hours | prodrug remaining [7]: 39%
